Results as given in the NIST ThermoML archive (doi:10.1016/j.jct.2016.06.012).

Experiment: xn = mol fraction of the nth substance listed
Conditions: 100 kPa, Liquid; for viscosity: Capillary tube (Ostwald / Ubbelohde) method; for mass density: Vibrating tube method

CCCCn1cc[n+](C)c1C.O=S(=O)([N-]S(=O)(=O)C(F)(F)F)C(F)(F)F + O=C1CCCO1
Conditions	mass density [kg/m3]	viscosity [mPa·s]
293.15 K, x1 = 0.0532	1183	2.62
293.15 K, x1 = 0.1004	1219.51	3.65
293.15 K, x1 = 0.1504	1250.59	4.95
293.15 K, x1 = 0.1999	1275.61	6.54
293.15 K, x1 = 0.2988	1314.04	10.79
293.15 K, x1 = 0.4006	1342.77	17.78
293.15 K, x1 = 0.5005	1364.2	26.66
293.15 K, x1 = 0.5999	1381	40.38
293.15 K, x1 = 0.7	1394.71	56.57
293.15 K, x1 = 0.8013	1406.18	79.17
293.15 K, x1 = 0.8986	1415.43	102.22
293.15 K, x1 = 1	1423.72	133.59
298.15 K, x1 = 0.0532	1178.1	2.43
298.15 K, x1 = 0.1004	1214.61	3.29
298.15 K, x1 = 0.1504	1245.77	4.48
298.15 K, x1 = 0.1999	1270.81	5.77
298.15 K, x1 = 0.2988	1309.26	9.32
298.15 K, x1 = 0.4006	1338.05	14.92
298.15 K, x1 = 0.5005	1359.5	22.02
298.15 K, x1 = 0.5999	1376.34	32.56
298.15 K, x1 = 0.7	1390.08	44.79
298.15 K, x1 = 0.8013	1401.56	60.93
298.15 K, x1 = 0.8986	1410.81	78.62
298.15 K, x1 = 1	1419.13	101.34
303.15 K, x1 = 0.0532	1173.22	2.23
303.15 K, x1 = 0.1004	1209.75	2.98
303.15 K, x1 = 0.1504	1240.94	4.01
303.15 K, x1 = 0.1999	1266	5.11
303.15 K, x1 = 0.2988	1304.49	8.06
303.15 K, x1 = 0.4006	1333.32	12.72
303.15 K, x1 = 0.5005	1354.8	18.27
303.15 K, x1 = 0.5999	1371.67	26.34
303.15 K, x1 = 0.7	1385.42	35.8
303.15 K, x1 = 0.8013	1396.93	48.32
303.15 K, x1 = 0.8986	1406.19	61.12
303.15 K, x1 = 1	1414.52	77.86
308.15 K, x1 = 0.0532	1168.35	2.05
308.15 K, x1 = 0.1004	1204.91	2.72
308.15 K, x1 = 0.1504	1236.11	3.65
308.15 K, x1 = 0.1999	1261.18	4.57
308.15 K, x1 = 0.2988	1299.72	7.1
308.15 K, x1 = 0.4006	1328.58	10.83
308.15 K, x1 = 0.5005	1350.1	15.54
308.15 K, x1 = 0.5999	1366.99	21.9
308.15 K, x1 = 0.7	1380.78	29.22
308.15 K, x1 = 0.8013	1392.3	39.19
308.15 K, x1 = 0.8986	1401.58	48.88
308.15 K, x1 = 1	1409.91	61.73
313.15 K, x1 = 0.0532	1163.43	1.9
313.15 K, x1 = 0.1004	1200.07	2.49
313.15 K, x1 = 0.1504	1231.24	3.28
313.15 K, x1 = 0.1999	1256.38	4.11
313.15 K, x1 = 0.2988	1294.96	6.29
313.15 K, x1 = 0.4006	1323.85	9.4
313.15 K, x1 = 0.5005	1345.39	13.32
313.15 K, x1 = 0.5999	1362.33	18.32
313.15 K, x1 = 0.7	1376.14	24.44
313.15 K, x1 = 0.8013	1387.67	32.14
313.15 K, x1 = 0.8986	1396.98	39.87
313.15 K, x1 = 1	1405.31	49.77
318.15 K, x1 = 0.0532	1158.58	1.74
318.15 K, x1 = 0.1004	1195.18	2.3
318.15 K, x1 = 0.1504	1226.41	3.06
318.15 K, x1 = 0.1999	1251.54	3.74
318.15 K, x1 = 0.2988	1290.17	5.63
318.15 K, x1 = 0.4006	1319.11	8.18
318.15 K, x1 = 0.5005	1340.7	11.52
318.15 K, x1 = 0.5999	1357.64	15.42
318.15 K, x1 = 0.7	1371.48	20.51
318.15 K, x1 = 0.8013	1383.04	26.78
318.15 K, x1 = 0.8986	1392.36	32.9
318.15 K, x1 = 1	1400.7	40.7
323.15 K, x1 = 0.0532	1153.71	1.63
323.15 K, x1 = 0.1004	1190.32	2.12
323.15 K, x1 = 0.1504	1221.58	2.72
323.15 K, x1 = 0.1999	1246.73	3.39
323.15 K, x1 = 0.2988	1285.42	5.03
323.15 K, x1 = 0.4006	1314.4	7.22
323.15 K, x1 = 0.5005	1336.03	10.06
323.15 K, x1 = 0.5999	1352.99	13.17
323.15 K, x1 = 0.7	1366.86	17.44
323.15 K, x1 = 0.8013	1378.44	22.39
323.15 K, x1 = 0.8986	1387.78	27.46
323.15 K, x1 = 1	1396.13	33.69
